In US20220257592A1, “METHODS OF TREATING CANCER” (HOFFMANN-LA ROCHE INC., priority 2019, published 2022):

Assay: Clinical trial safety, integrated analysis of ALKA, STARTRK-1, STARTRK-2, STARTRK-NG (N=504)
From the text: The following categories of frequency have been used: very common ≥1/10, common (≥1/100 to <1/10), uncommon (≥1/1,000 to <1/100), rare (≥1/10,000 to <1/1000), very rare (<1/10,000).

CN1CCN(c2ccc(C(=O)Nc3n[nH]c4ccc(Cc5cc(F)cc(F)c5)cc34)c(NC3CCOCC3)c2)CC1 [Entrectinib, N-[5-(3,5-difluorobenzyl)-1H-indazol-3-yl]-4-(4-methyl-piperazin-1-yl)-2-(tetrahydro-pyran-4-ylamino)-benzamide]
Laboratory: Hyperuricemia, Change from Baseline All Grades (N = 382): 50.8%
Laboratory: Hyperuricemia, Change from Baseline to Grade 3 or 4 (N = 382): 6.8%
Laboratory: Decreased Neutrophils, Change from Baseline All Grades (N = 457): 27.8%
Laboratory: Decreased Neutrophils, Change from Baseline to Grade 3 or 4 (N = 457): 6.3%
Laboratory: Increased AST, Change from Baseline All Grades (N = 478): 43.3%
Laboratory: Increased AST, Change from Baseline to Grade 3 or 4 (N = 478): 3.3%
Laboratory: Increased ALT, Change from Baseline All Grades (N = 479): 38.4%
Laboratory: Increased ALT, Change from Baseline to Grade 3 or 4 (N = 479): 3.1%
Laboratory: Increased Blood Creatinine, Change from Baseline All Grades (N = 480): 94.8%
Laboratory: Increased Blood Creatinine, Change from Baseline to Grade 3 or 4 (N = 480): 3.1%
Laboratory: Decreased Hemoglobin, Change from Baseline All Grades (N = 487): 65.7%
Laboratory: Decreased Hemoglobin, Change from Baseline to Grade 3 or 4 (N = 487): 9.2%
ALT increased, All Grades (N = 504): 16.1%
ALT increased, Frequency Category (All Grades) (N = 504): very common (very common ≥1/10)
ALT increased, Grade ≥3 (N = 504): 3.4%
AST increased, All Grades (N = 504): 17.5%
AST increased, Frequency Category (All Grades) (N = 504): very common (very common ≥1/10)
AST increased, Grade ≥3 (N = 504): 3.6%
Abdominal pain, All Grades (N = 504): 11.1%
Abdominal pain, Frequency Category (All Grades) (N = 504): very common (very common ≥1/10)
Abdominal pain, Grade ≥3 (N = 504): 0.6%
Anemia, All Grades (N = 504): 28.2%
Anemia, Frequency Category (All Grades) (N = 504): very common (very common ≥1/10)
Anemia, Grade ≥3 (N = 504): 9.7%
Arthralgia, All Grades (N = 504): 19.0%
Arthralgia, Frequency Category (All Grades) (N = 504): very common (very common ≥1/10)
Arthralgia, Grade ≥3 (N = 504): 0.6%
Ataxia, Frequency Category (All Grades) (N = 504): very common (very common ≥1/10)
Ataxia, Grade ≥3 (N = 504): 0.8%
Blood creatinine increased, All Grades (N = 504): 25.4%
Blood creatinine increased, Frequency Category (All Grades) (N = 504): very common (very common ≥1/10)
Blood creatinine increased, Grade ≥3 (N = 504): 0.6%
Cognitive Disorders, All Grades (N = 504): 24.2%
Cognitive Disorders, Frequency Category (All Grades) (N = 504): very common (very common ≥1/10)
Cognitive Disorders, Grade ≥3 (N = 504): 4.4%
Congestive Heart Failure, All Grades (N = 504): 3.0%
Congestive Heart Failure, Frequency Category (All Grades) (N = 504): common (common (≥1/100 to <1/10))
Congestive Heart Failure, Grade ≥3 (N = 504): 2.2%
Constipation, All Grades (N = 504): 42.9%
Constipation, Frequency Category (All Grades) (N = 504): very common (very common ≥1/10)
Constipation, Grade ≥3 (N = 504): 0.4%
Cough, All Grades (N = 504): 21.4%
Cough, Frequency Category (All Grades) (N = 504): very common (very common ≥1/10)
Cough, Grade ≥3 (N = 504): 0.6%
Decreased appetite, All Grades (N = 504): 11.9%
Decreased appetite, Frequency Category (All Grades) (N = 504): very common (very common ≥1/10)
Decreased appetite, Grade ≥3 (N = 504): 0.2%
Dehydration, All Grades (N = 504): 7.9%
Dehydration, Frequency Category (All Grades) (N = 504): common (common (≥1/100 to <1/10))
Dehydration, Grade ≥3 (N = 504): 1.0%
Diarrhea, All Grades (N = 504): 33.5%
Diarrhea, Frequency Category (All Grades) (N = 504): very common (very common ≥1/10)
Diarrhea, Grade ≥3 (N = 504): 2.6%
Dizziness, All Grades (N = 504): 39.7%
Dizziness, Frequency Category (All Grades) (N = 504): very common (very common ≥1/10)
Dizziness, Grade ≥3 (N = 504): 1.2%
Dysasthesia, All Grades (N = 504): 29.0%
Dysasthesia, Frequency Category (All Grades) (N = 504): very common (very common ≥1/10)
Dysasthesia, Grade ≥3 (N = 504): 0.2%
Dysgeusia, All Grades (N = 504): 42.3%
Dysgeusia, Frequency Category (All Grades) (N = 504): very common (very common ≥1/10)
Dysgeusia, Grade ≥3 (N = 504): 0.4%
Dysphagia, All Grades (N = 504): 10.1%
Dysphagia, Frequency Category (All Grades) (N = 504): very common (very common ≥1/10)
Dysphagia, Grade ≥3 (N = 504): 0.4%
Dyspnea, All Grades (N = 504): 27.0%
Dyspnea, Frequency Category (All Grades) (N = 504): very common (very common ≥1/10)
Edema, All Grades (N = 504): 37.3%
Edema, Frequency Category (All Grades) (N = 504): very common (very common ≥1/10)
Edema, Grade ≥3 (N = 504): 1.4%
Electrocardiogram QT prolonged, All Grades (N = 504): 2.0%
Electrocardiogram QT prolonged, Grade ≥3 (N = 504): 0.6%
Fatigue, All Grades (N = 504): 45.0%
Fatigue, Frequency Category (All Grades) (N = 504): very common (very common ≥1/10)
Fatigue, Grade ≥3 (N = 504): 5.0%
Fractures, All Grades (N = 504): 6.2%
Fractures, Frequency Category (All Grades) (N = 504): common (common (≥1/100 to <1/10))
Fractures, Grade ≥3 (N = 504): 2.4%
Headache, All Grades (N = 504): 17.5%
Headache, Frequency Category (All Grades) (N = 504): very common (very common ≥1/10)
Headache, Grade ≥3 (N = 504): 1.0%
Hyperuricemia, All Grades (N = 504): 9.1%
Hyperuricemia, Frequency Category (All Grades) (N = 504): common (common (≥1/100 to <1/10))
Hyperuricemia, Grade ≥3 (N = 504): 1.8%
Hypotension, All Grades (N = 504): 16.5%
Hypotension, Frequency Category (All Grades) (N = 504): very common (very common ≥1/10)
Hypotension, Grade ≥3 (N = 504): 2.4%
Lung infection, All Grades (N = 504): 13.1%
Lung infection, Frequency Category (All Grades) (N = 504): very common (very common ≥1/10)
Mood disorders, All Grades (N = 504): 9.1%
Mood disorders, Frequency Category (All Grades) (N = 504): common (common (≥1/100 to <1/10))
Mood disorders, Grade ≥3 (N = 504): 0.6%
Muscular weakness, All Grades (N = 504): 12.3%
Muscular weakness, Frequency Category (All Grades) (N = 504): very common (very common ≥1/10)
Muscular weakness, Grade ≥3 (N = 504): 1.2%
Myalgia, All Grades (N = 504): 19.6%
